Test system: GFP-aid-NLS marker protein
Assay: Induction of degradation of labeled protein of interest in transiently transfected COS1 cells, Western blot with GFP antibody
Format: cell-based, monkey
Conditions: 500 μM auxin, 5 hours
Experimental: The EGFP segment of pIRES2-AcGFP1 (Clontech) was removed by treatment with restriction enzymes BstXI and NotI, into which EGFP-IAA17, which was amplified using pMK42 (an EGFP-IAA17-containing plasmid produced by the inventors) as a template and the following primer set, was inserted (the amplified sequence is shown in SEQ ID NO: 13). By this process, EGFP-IAA17 was cloned downstream of IRES. The resulting plasmid was treated with restriction enzymes XhoI and SmaI, and into this site, rice TIR1 tagged with 9Myc at its C terminus was inserted. By this process, the rice TIR1 was inserted between a CMV promoter and IRES, and the resulting plasmid was referred to as pNHK60. The pNHK60 was transferred into the proliferating COS1, CHO, and NIH3T3 cells using Lipofectamine 2000 (Invitrogen) for transient expression. The HEK293 cell shown in FIG. 4 is a HEK293 strain stably expressing pNHK60, which was obtained by transfer of the pNHK60 under the aforementioned conditions and subsequent selection by the addition of G418 to a medium.
In the experiment of transient expression, the cells were cultured in a medium to which 500 μM IAA or NAA was added, and after five hours, the cells were collected, from which extracts were prepared. […] The factors were detected by Western blotting.
The protein thus extracted was separated by SDS-PAGE and then transferred to a nitrocellulose membrane. Using an anti-Myc antibody (mouse monoclonal 9E10) and an anti-GFP antibody (mouse monoclonal 9E1), each kind of protein was detected by Western blotting. […] For migration control, total extracted proteins were detected by Ponceau staining. Since the […] TIR1 gene is tagged with 9Myc, the TIR1 protein can be detected by Western blotting with the aforementioned Myc antibody. Also, EGFP, which is a protein to be degraded in the complex protein, can be detected by Western blotting with the GFP antibody.
In a similar manner to Example 1, the induction of degradation of a labeled protein of interest was compared between the case in which an expression vector having the TIR1 family protein gene from rice linked between a virus promoter and IRES and the chimeric gene expressing a labeled protein of interest linked downstream thereof was transferred (corresponding to A in FIG. 5) and the case in which an expression vector having the chimeric gene expressing a labeled protein of interest linked between a virus promoter and IRES and the TIR1 family protein gene from rice linked downstream thereof was transferred (corresponding to B in FIG. 5). […] After extraction of a protein sample, the expressed GFP-aid-NLS marker protein was detected by Western blotting using the GFP antibody.

[1] = DNA construct A (rice TIR1 between virus promoter and IRES, chimeric gene downstream)
[2] = DNA construct B (chimeric gene between virus promoter and IRES, rice TIR1 downstream)

| SMILES | depletion of expressed GFP-aid-NLS marker protein [1] | depletion of expressed GFP-aid-NLS marker protein [2] |
| --- | --- | --- |
| O=C(O)Cc1cccc2ccccc12 [NAA, 1-naphthaleneacetic acid] | efficiently depleted | no outstanding depletion |
| O=C(O)Cc1c[nH]c2ccccc12 [IAA, indole-3-acetic acid] | efficiently depleted | no outstanding depletion |
